“Also recorded” adds a separate entry of the source. Like-named read-outs stand apart in the source and are kept apart here.
How the values were obtained:
[1] = system: stationary phase B. burgdorferi; test: Residual viable B. burgdorferi by epifluorescence microscope counting after drug exposure; conditions: for viability at 50 µM: Borreliella burgdorferi, 168 h, read-out: Residual viable cells (Microscopy)
Description: (§1) Borrelia burgdorferi strain B31 (ATCC35210) was received from the […] (Manassas, Va., USA) and was grown in BSK-H medium (HiMedia Laboratories, Mumbai, India) and 6% rabbit serum (Sigma Aldrich, St. Louis, Mo., USA). The culture was filtered and sterilized using a […] and incubated in capped sterile 50 mL conical tubes (BD Biosciences, CA, USA) at 33° C. for 7 days without antibiotics until the culture reached stationary phase.
(§2) The cultures were examined using a Nikon Eclipse E800 microscope with differential interference contrast and epifluorescent illumination. The pictures were captured using a SPOT slider color camera. A SYBR Green I/PI assay was used to assess the viability of the bacterial sample using the ratio of live to dead B. burgdorferi (measured with green and red fluorescence, respectively) as measured by a plate reader.
(§3) Briefly, prediluted drug stock (10 μL) was added to 7 day old stationary phase B. burgdorferi culture (90 μL) to achieve a 50 μM final drug concentration per well. The plates were then incubated at 33° C. for 7 days at which point the SYBR/PI rapid viability assay was performed in a fluorescence plate reader to obtain the green-red fluorescence ratio.

[2] = system: stationary phase B. burgdorferi; test: SYBR Green I/PI viability assay (drug library screen, plate reader); conditions: for viability at 50 µM: Borreliella burgdorferi, 168 h; for viability at 50 µM / Residual viable cells (SYBR Green/PI) / Residual viable cells (SYBR/PI): drugs 50 μM; for activity against stationary phase B. burgdorferi (in words): screen at 50 μM, 7 days; for Residual viable cells (SYBR Green/PI): Table 1; for Residual viable cells (SYBR/PI): Table 3
Description: as §1, §2, §3

growing B. burgdorferi = test: MIC of active hits; assay type: cell-based, Borrelia burgdorferi
[3] = read-out: Residual viable cells (SYBR Green/PI), Table 1, 7 day old stationary phase cells treated for 7 days
[4] = read-out: Residual viable cells (SYBR/PI), Table 3, 7-day old stationary phase cells treated for 7 days
[5] = Borreliella burgdorferi, read-out: MIC
[6] = Table 1, drugs 50 μM, 7 day old stationary phase cells treated for 7 days
[7] = Table 3, drugs 50 μM, 7-day old stationary phase cells treated for 7 days
[8] = 7 day old stationary phase cells treated for 7 days
[9] = 7-day old stationary phase cells treated for 7 days

`OC(Cn1cncn1)(Cn1cncn1)c1ccc(F)cc1F` [Fluconazole] gave a viability at 50 µM [1] of 45%, a viability at 50 µM [2, 3] of 55% and a viability at 50 µM [2, 4] of 55%. For the same molecule, the “activity against stationary phase B. burgdorferi (in words)” value [2] was “reasonable activity” and the MIC (growing B. burgdorferi; [5]) was 0.48 to 0.96 µg/mL.
Dextrorphan tartrate was tested, and the “Residual viable cells (Microscopy)” value [1, 6] was 43%, the “Residual viable cells (Microscopy)” value [1, 7] was 43% and the “Residual viable cells (SYBR Green/PI)” value [2, 8] was 47%. For the same molecule, the “Residual viable cells (SYBR/PI)” value [2, 9] was 47%, the “activity against stationary phase B. burgdorferi (in words)” value [2] was “high activity” and the MIC (growing B. burgdorferi) was 1.27 to 2.55 µg/mL.
Work on `O=C(O)[C@@H]1CCC(O)=N1` (racemic) [Pidolic acid, DL-2-Pyrrolidone-5-Carboxylic Acid] yielded a viability at 50 µM [1] of 45%, a viability at 50 µM [2, 3] of 45% and a viability at 50 µM [2, 4] of 43%. The “activity against stationary phase B. burgdorferi (in words)” value [2] was “high activity” and the MIC (growing B. burgdorferi; [5]) was 0.81 to 1.61 µg/mL.
For `CCCCCCCCCCCCCCCC[N+](C)(C)CCN(Cc1ccc(OC)cc1)c1ncccn1` [Thonzonium bromide], the viability at 50 µM [1] was 33%, the viability at 50 µM [2, 4] was 31% and the “activity against stationary phase B. burgdorferi (in words)” value [2] was “very high activities; also recorded: comparable activity to daptomycin”. For the same molecule, the MIC (growing B. burgdorferi; [5]) was 0.92 to 1.85 µg/mL.
With Verteporfin the “Residual viable cells (Microscopy)” value [1] was 47%, the “activity against stationary phase B. burgdorferi (in words)” value [2] was “high activity” and the MIC (growing B. burgdorferi) was 4.49 to 8.98 µg/mL.
`CCCCCCCCCCCC[N+](C)(C)Cc1ccccc1` [Benzododecinium chloride] was tested, and the viability at 50 µM [2, 4] was 40%, the “activity against stationary phase B. burgdorferi (in words)” value [2] was “very high activities” and the MIC (growing B. burgdorferi; [5]) was 0.6 to 1.2 µg/mL.
In the case of `Cc1c(-c2cnccn2)ssc1=S` [Oltipraz], the viability at 50 µM [1] is reported as 55%, the viability at 50 µM [2, 3] is reported as 46% and the viability at 50 µM [2, 4] is reported as 46%. The “activity against stationary phase B. burgdorferi (in words)” value [2] was “high activity” and the MIC (growing B. burgdorferi; [5]) was 0.71 to 1.41 µg/mL.
`CC1(C)S[C@@H]2[C@H](NC(=O)C(C(=O)O)c3ccccc3)C(=O)N2[C@H]1C(=O)O` (some centres unmarked) [Carbenicillin] showed a viability at 50 µM [1] of 64%, a viability at 50 µM [2, 3] of 46% and a viability at 50 µM [2, 4] of 46%.
In the case of `CCCCCCCCCC(=O)N[C@@H](Cc1c[nH]c2ccccc12)C(=O)N[C@H](CC(N)=O)C(=O)N[C@@H](CC(=O)O)C(=O)N[C@@H]1C(=O)NCC(=O)N[C@@H](CCCN)C(=O)N[C@@H](CC(=O)O)C(=O)N[C@H](C)C(=O)N[C@@H](CC(=O)O)C(=O)NCC(=O)N[C@H](CO)C(=O)N[C@@H]([C@H](C)CC(=O)O)C(=O)N[C@@H](CC(=O)c2ccccc2N)C(=O)O[C@@H]1C` [Daptomycin], the viability at 50 µM [1] is reported as 35%, the viability at 50 µM [2, 3] is reported as 28% and the viability at 50 µM [2, 4] is reported as 28%.
In the case of `C=CCCCCCCCCC(=O)O` [Undecylenic acid], the viability at 50 µM [1] is reported as 74% and the viability at 50 µM [2, 4] is reported as 55%.
`Nc1nc2c(ncn2CCC(CO)CO)c(=O)[nH]1` [Penciclovir] was tested, and the viability at 50 µM [1] was 60%, the viability at 50 µM [2, 3] was 64% and the viability at 50 µM [2, 4] was 64%.
Molecule `C[C@H]1[C@H](NC(=O)/C(=N\OC(C)(C)C(=O)O)c2csc(N)n2)C(=O)N1S(=O)(=O)O` [Aztreonam] has a viability at 50 µM [1] of 50%, a viability at 50 µM [2, 3] of 55% and a viability at 50 µM [2, 4] of 55%.
`Nc1nc(=O)[nH]cc1F` [Flucytosine (5-Fluorocytosine), 5-Fluorocytosine] showed a viability at 50 µM [1] of 66% and a viability at 50 µM [2, 4] of 68%.
For `CN(C)c1ccc2nc3ccc(=[N+](C)C)cc-3sc2c1` [Methylene blue hydrate], the viability at 50 µM [1] was 40%, the “activity against B. burgdorferi persisters by careful microscopy analysis (in words)” value ([1]; coloured drugs verified by microscopy) was “high activity” and the “activity against stationary phase B. burgdorferi (in words)” value [2] was “good activity”.
In the case of `CC(C)(C)C(=O)C(Oc1ccc(Cl)cc1)n1ccnc1` (centres unmarked) [Climbazole], the viability at 50 µM [1] is reported as 71%, the viability at 50 µM [2, 4] is reported as 62% and the “activity against stationary phase B. burgdorferi (in words)” value [2] is reported as “reasonable activity”.
`c1ccc(-c2ccc(C(c3ccccc3)n3ccnc3)cc2)cc1` (centres unmarked) [Bifonazole] was tested, and the viability at 50 µM [1] was 50%, the viability at 50 µM [2, 3] was 48% and the viability at 50 µM [2, 4] was 48%. The “activity against stationary phase B. burgdorferi (in words)” value [2] was “reasonable activity”.
For `C=CC1=C(C(=O)O)N2C(=O)[C@@H](NC(=O)/C(=N\OCC(=O)O)c3csc(N)n3)[C@H]2SC1` [Cefixime], the viability at 50 µM [1] was 56%, the viability at 50 µM [2, 3] was 56% and the viability at 50 µM [2, 4] was 56%.
With `CO[C@H]1/C=C/O[C@@]2(C)Oc3c(C)c(O)c4c(O)c(c(C=O)c(O)c4c3C2=O)NC(=O)/C(C)=C\C=C\[C@H](C)[C@H](O)[C@@H](C)[C@@H](O)[C@@H](C)[C@H](OC(C)=O)[C@@H]1C` [3-formyl Rifamycin] the “Residual viable cells (Microscopy)” value [1, 6] was 59%, the “Residual viable cells (Microscopy)” value [1, 7] was 59% and the “Residual viable cells (SYBR Green/PI)” value [2, 8] was 42%. For the same molecule, the “Residual viable cells (SYBR/PI)” value [2, 9] was 42% and the MIC (growing B. burgdorferi) was 2.27 to 4.54 µg/mL.

Source: patent US20190008848A1, “IDENTIFICATION OF ADDITIONAL ANTI-PERSISTER ACTIVITY AGAINST BORRELIA BURGDORFERI FROM AN FDA DRUG LIBRARY” (THE JOHNS HOPKINS UNIVERSITY, priority 2015, published 2019)
